Results taken from PubChem BioAssay (NCI).
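Protocol summary: plate cells (96-well), add compound at 5 concentrations, incubate 48 h, interpolate endpoints linearly. Definition used: TGI = concentration required for complete inhibition of growth.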

Key:
Assay in all cases: DTP human tumour cell line panel, 48 h
HS 578T breast = system: HS 578T breast
HOP-62 NSCLC = system: HOP-62 NSCLC
RXF 393 renal = system: RXF 393 renal
LOX IMVI melanoma = system: LOX IMVI melanoma
PC-3 prostate = system: PC-3 prostate
IGROV1 ovarian = system: IGROV1 ovarian
K-562 leukemia = system: K-562 leukemia
CCRF-CEM leukemia = system: CCRF-CEM leukemia
SK-OV-3 ovarian = system: SK-OV-3 ovarian
TK-10 renal = system: TK-10 renal
U251 CNS = system: U251 CNS
UO-31 renal = system: UO-31 renal
SN12C renal = system: SN12C renal
SK-MEL-5 melanoma = system: SK-MEL-5 melanoma
HL-60(TB) leukemia = system: HL-60(TB) leukemia
UACC-257 melanoma = system: UACC-257 melanoma
UACC-62 melanoma = system: UACC-62 melanoma
SNB-19 CNS = system: SNB-19 CNS
OVCAR-8 ovarian = system: OVCAR-8 ovarian
SW-620 colon = system: SW-620 colon
MDA-MB-435 = system: MDA-MB-435
NCI-H23 lung = system: NCI-H23 lung
MCF7 breast = system: MCF7 breast
SNB-75 CNS = system: SNB-75 CNS
A549 NSCLC = system: A549 NSCLC
786-0 renal = system: 786-0 renal
HCT-15 colon = system: HCT-15 colon
OVCAR-4 ovarian = system: OVCAR-4 ovarian
A498 renal = system: A498 renal
SF-539 CNS = system: SF-539 CNS
M14 melanoma = system: M14 melanoma
MDA-N = system: MDA-N
DU-145 prostate = system: DU-145 prostate
SR leukemia = system: SR leukemia
CAKI-1 renal = system: CAKI-1 renal
RPMI-8226 leukemia = system: RPMI-8226 leukemia
HCT-116 colon = system: HCT-116 colon
NCI-H226 lung = system: NCI-H226 lung
MDA-MB-231 breast = system: MDA-MB-231 breast
BT-549 breast = system: BT-549 breast
HOP-92 NSCLC = system: HOP-92 NSCLC
MALME-3M melanoma = system: MALME-3M melanoma
EKVX NSCLC = system: EKVX NSCLC
NCI-H460 lung = system: NCI-H460 lung
OVCAR-5 ovarian = system: OVCAR-5 ovarian
ACHN renal = system: ACHN renal
NCI/ADR-RES ovarian = system: NCI/ADR-RES ovarian
T-47D breast = system: T-47D breast
SF-268 CNS = system: SF-268 CNS
NCI-H522 lung = system: NCI-H522 lung
SF-295 CNS = system: SF-295 CNS
SK-MEL-28 melanoma = system: SK-MEL-28 melanoma
HT29 colon = system: HT29 colon
OVCAR-3 ovarian = system: OVCAR-3 ovarian
SK-MEL-2 melanoma = system: SK-MEL-2 melanoma
KM12 colon = system: KM12 colon
COLO 205 colon = system: COLO 205 colon
MOLT-4 leukemia = system: MOLT-4 leukemia
HCC-2998 colon = system: HCC-2998 colon

Compound `CSc1ncnc2c1ncn2CC(=O)C1CCC2C3CCC4=CC(=O)CCC4(C)C3CCC12C` (stereo unspecified) has a TGI (HS 578T breast) greater than 100 µM, a TGI (HOP-62 NSCLC) greater than 30.1 µM and a TGI (RXF 393 renal) greater than 100 µM. It also gave a TGI (LOX IMVI melanoma) of 19.4 µM, a TGI (PC-3 prostate) of 9.71 µM and a TGI (IGROV1 ovarian) greater than 100 µM. For the same compound, the TGI (K-562 leukemia) was greater than 71.8 µM, the TGI (CCRF-CEM leukemia) was 2.16 µM and the TGI (SK-OV-3 ovarian) was greater than 100 µM. The TGI (TK-10 renal) was 30.1 µM, the TGI (U251 CNS) was 42.4 µM and the TGI (UO-31 renal) was 2.52 µM. It also gave a TGI (SN12C renal) greater than 93.8 µM, a TGI (SK-MEL-5 melanoma) of 5.15 µM and a TGI (HL-60(TB) leukemia) of 0.926 µM. The TGI (UACC-257 melanoma) was 6.09 µM, the TGI (UACC-62 melanoma) was 14 µM and the TGI (SNB-19 CNS) was greater than 100 µM. The TGI (OVCAR-8 ovarian) was greater than 40.7 µM, the TGI (SW-620 colon) was greater than 100 µM and the TGI (MDA-MB-435) was 10 µM. It also gave a TGI (NCI-H23 lung) of 35.2 µM, a TGI (MCF7 breast) of 14.9 µM and a TGI (SNB-75 CNS) of 27.9 µM. It also gave a TGI (A549 NSCLC) greater than 64.7 µM, a TGI (786-0 renal) greater than 100 µM and a TGI (HCT-15 colon) greater than 77.1 µM. The TGI (OVCAR-4 ovarian) was 21.3 µM, the TGI (A498 renal) was 38.4 µM and the TGI (SF-539 CNS) was 44.7 µM. For the same compound, the TGI (M14 melanoma) was 8.88 µM, the TGI (MDA-N) was 12.4 µM and the TGI (DU-145 prostate) was greater than 96.7 µM. For the same compound, the TGI (SR leukemia) was 5.56 µM, the TGI (CAKI-1 renal) was greater than 70.2 µM and the TGI (RPMI-8226 leukemia) was 5.21 µM. For the same compound, the TGI (HCT-116 colon) was 59.2 µM, the TGI (NCI-H226 lung) was 29.8 µM and the TGI (MDA-MB-231 breast) was 27.7 µM. It also gave a TGI (BT-549 breast) of 9.89 µM, a TGI (HOP-92 NSCLC) greater than 88.3 µM and a TGI (MALME-3M melanoma) of 31.7 µM. It also gave a TGI (EKVX NSCLC) of 68.3 µM, a TGI (NCI-H460 lung) of 18.9 µM and a TGI (OVCAR-5 ovarian) greater than 100 µM. It also gave a TGI (ACHN renal) of 23.8 µM, a TGI (NCI/ADR-RES ovarian) of 7.57 µM and a TGI (T-47D breast) of 5.63 µM. For the same compound, the TGI (SF-268 CNS) was greater than 100 µM, the TGI (NCI-H522 lung) was 24.5 µM and the TGI (SF-295 CNS) was 23.7 µM. For the same compound, the TGI (SK-MEL-28 melanoma) was 28.2 µM, the TGI (HT29 colon) was greater than 100 µM and the TGI (OVCAR-3 ovarian) was 25.8 µM. The TGI (SK-MEL-2 melanoma) was 11.6 µM, the TGI (KM12 colon) was 9.88 µM and the TGI (COLO 205 colon) was 14.4 µM. For the same compound, the TGI (MOLT-4 leukemia) was 4.93 µM.
In the case of `N#CC1=C(N)N(/N=C/c2ccccc2)C(c2ccccc2)C1(C#N)C#N` (stereo unspecified), the TGI (HS 578T breast) is reported as 66.7 µM, the TGI (HOP-62 NSCLC) is reported as 33.1 µM and the TGI (RXF 393 renal) is reported as 9.83 µM. The TGI (LOX IMVI melanoma) was 14.6 µM, the TGI (PC-3 prostate) was 34.5 µM and the TGI (IGROV1 ovarian) was 29.1 µM. It also gave a TGI (K-562 leukemia) greater than 26 µM, a TGI (CCRF-CEM leukemia) of 6.12 µM and a TGI (SK-OV-3 ovarian) of 26.3 µM. It also gave a TGI (TK-10 renal) of 16.7 µM, a TGI (U251 CNS) of 32.6 µM and a TGI (UO-31 renal) of 29.7 µM. The TGI (SN12C renal) was 31 µM, the TGI (SK-MEL-5 melanoma) was 30.9 µM and the TGI (HL-60(TB) leukemia) was 5.47 µM. For the same compound, the TGI (UACC-257 melanoma) was 23.4 µM, the TGI (UACC-62 melanoma) was 29.5 µM and the TGI (SNB-19 CNS) was greater than 54.6 µM. For the same compound, the TGI (OVCAR-8 ovarian) was 38 µM, the TGI (SW-620 colon) was 14.5 µM and the TGI (MDA-MB-435) was 33.7 µM. The TGI (NCI-H23 lung) was 33.5 µM, the TGI (MCF7 breast) was 58.6 µM and the TGI (SNB-75 CNS) was 31.6 µM. For the same compound, the TGI (A549 NSCLC) was 43.1 µM, the TGI (786-0 renal) was 16.1 µM and the TGI (HCT-15 colon) was 18.7 µM. It also gave a TGI (OVCAR-4 ovarian) of 28.5 µM, a TGI (A498 renal) of 29.3 µM and a TGI (SF-539 CNS) of 33.9 µM. The TGI (M14 melanoma) was 42.8 µM, the TGI (MDA-N) was 30.5 µM and the TGI (DU-145 prostate) was 30.6 µM. For the same compound, the TGI (SR leukemia) was 8.5 µM, the TGI (CAKI-1 renal) was 13 µM and the TGI (RPMI-8226 leukemia) was 18.5 µM. It also gave a TGI (HCT-116 colon) of 8.13 µM, a TGI (NCI-H226 lung) of 37.2 µM and a TGI (MDA-MB-231 breast) of 31.4 µM. It also gave a TGI (BT-549 breast) of 29.4 µM, a TGI (HCC-2998 colon) of 34.9 µM and a TGI (HOP-92 NSCLC) of 6.54 µM. The TGI (MALME-3M melanoma) was 4.39 µM, the TGI (EKVX NSCLC) was 38.3 µM and the TGI (OVCAR-5 ovarian) was 39.4 µM. The TGI (ACHN renal) was 14.9 µM, the TGI (NCI/ADR-RES ovarian) was 54.2 µM and the TGI (T-47D breast) was 24.4 µM. It also gave a TGI (SF-268 CNS) of 46 µM, a TGI (NCI-H522 lung) of 16.6 µM and a TGI (SF-295 CNS) of 39.5 µM. It also gave a TGI (SK-MEL-28 melanoma) of 9.91 µM, a TGI (HT29 colon) of 15.7 µM and a TGI (OVCAR-3 ovarian) of 17.4 µM. For the same compound, the TGI (SK-MEL-2 melanoma) was 34.9 µM, the TGI (KM12 colon) was greater than 58.2 µM and the TGI (COLO 205 colon) was 4.82 µM. It also gave a TGI (MOLT-4 leukemia) of 5.5 µM.
